Assay [1] concerns the target T1, Melanocortin receptor 3 (Homo sapiens, UniProt P41968). In words: Tested for its binding affinity towards human recombinant Melanocortin 3 receptor by using radioligand binding assay.
In another assay the target is Melanocortin receptor 4 (Homo sapiens, UniProt P32245). Put plainly: Tested for its binding affinity towards human recombinant Melanocortin 4 receptor by using radioligand binding assay.
In the next assay the target is Melanocortin receptor 5 (Homo sapiens, UniProt P33032). Put plainly: Tested for its binding affinity towards human recombinant Melanocortin 5 receptor by using radioligand binding assay.
Melanocortin receptor 5, sequence (P33032 whole entry): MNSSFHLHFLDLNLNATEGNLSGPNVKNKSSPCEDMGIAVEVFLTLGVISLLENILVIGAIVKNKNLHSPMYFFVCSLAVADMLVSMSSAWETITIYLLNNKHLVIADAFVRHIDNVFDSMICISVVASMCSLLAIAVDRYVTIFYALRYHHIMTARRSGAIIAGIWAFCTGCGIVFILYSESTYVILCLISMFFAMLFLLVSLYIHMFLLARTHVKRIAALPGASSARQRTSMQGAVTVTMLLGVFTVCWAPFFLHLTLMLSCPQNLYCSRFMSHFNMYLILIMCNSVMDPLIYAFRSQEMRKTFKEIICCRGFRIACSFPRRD
For assay [2], the target named is T2, Melanocyte-stimulating hormone receptor (Homo sapiens, UniProt Q01726). In words: Tested for its binding affinity towards human recombinant Melanocortin 1 receptor by using radioligand binding assay.
T2 sequence (Q01726 whole entry): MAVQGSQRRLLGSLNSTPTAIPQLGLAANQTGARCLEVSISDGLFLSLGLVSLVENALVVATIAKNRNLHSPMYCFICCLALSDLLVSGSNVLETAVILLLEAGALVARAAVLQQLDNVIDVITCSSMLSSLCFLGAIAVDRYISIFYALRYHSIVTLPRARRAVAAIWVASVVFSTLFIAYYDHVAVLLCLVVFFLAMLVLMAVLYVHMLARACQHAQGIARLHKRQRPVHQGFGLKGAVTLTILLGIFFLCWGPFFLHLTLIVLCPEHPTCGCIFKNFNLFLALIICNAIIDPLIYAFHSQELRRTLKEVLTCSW
The target in assay [3] is T2, Melanocyte-stimulating hormone receptor. Put plainly: Tested for its binding affinity towards human recombinant Melanocortin 1 receptor by using radioligand binding assay; nb = no binding up to 0.5 mM.
The target in assay [4] is T1, Melanocortin receptor 3. In words: Tested for its binding affinity towards human recombinant Melanocortin 3 receptor by using radioligand binding assay; nb = no binding up to 0.5 mM.

The Ki is the dissociation constant of the complex between target and ligand, obtained from inhibition or displacement.

Bounds are passed on as bounds.

Melanocortin receptor 4, sequence (P32245 whole entry): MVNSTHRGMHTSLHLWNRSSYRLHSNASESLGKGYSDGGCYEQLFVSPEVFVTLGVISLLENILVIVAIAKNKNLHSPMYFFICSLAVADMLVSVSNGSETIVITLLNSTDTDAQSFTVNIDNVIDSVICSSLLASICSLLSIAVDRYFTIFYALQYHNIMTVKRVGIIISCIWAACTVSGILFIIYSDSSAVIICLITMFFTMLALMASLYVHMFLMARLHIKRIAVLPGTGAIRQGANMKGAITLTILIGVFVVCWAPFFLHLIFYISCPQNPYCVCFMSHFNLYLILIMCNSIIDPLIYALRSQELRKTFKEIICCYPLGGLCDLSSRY
T1 sequence (P41968 whole entry): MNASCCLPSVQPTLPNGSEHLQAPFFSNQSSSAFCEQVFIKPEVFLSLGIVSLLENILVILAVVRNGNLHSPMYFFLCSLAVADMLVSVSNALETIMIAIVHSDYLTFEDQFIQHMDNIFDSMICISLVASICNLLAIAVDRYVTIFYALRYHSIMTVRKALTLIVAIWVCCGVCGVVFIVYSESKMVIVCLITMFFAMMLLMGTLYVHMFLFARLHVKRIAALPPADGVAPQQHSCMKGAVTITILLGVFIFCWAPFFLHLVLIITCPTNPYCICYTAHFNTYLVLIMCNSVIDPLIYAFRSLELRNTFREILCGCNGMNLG

Consider `NC(N)=NCCCC(N)C(=O)N(CCc1c[nH]c2ccccc12)Cc1ccc2ccccc2c1` (single isomer, unassigned), for which the Ki at Melanocortin receptor 3 [1] stood at 19 µM; on Melanocortin receptor 4 it was 15 µM; at Melanocortin receptor 5 it was 10 µM; in assay [2] it was 1.5 µM.
For `NC(N)=NCCC[C@H](N)C(=O)N(Cc1cccc2ccccc12)Cc1c[nH]c2ccccc12`, in that order: 52 µM, 70 µM, 12 µM and 11 µM.
For `N[C@H](CCC(=O)O)C(=O)N(Cc1ccc2ccccc2c1)Cc1cccc2ccccc12`, in that order: 294 µM, 89 µM, 45 µM and 46 µM.
For `c1ccc2cc(CN3CCNCC3)ccc2c1`, in that order: over 1000 µM, over 1000 µM, 141 µM and over 1000 µM.
With `N=C(N)NCCCNCc1ccc2ccccc2c1`, the Ki turned out to be 31 µM on Melanocortin receptor 3 [1], 56 µM on Melanocortin receptor 4, 36 µM on Melanocortin receptor 5 and 19 µM in assay [2].
For `c1ccc2cc(CNCCc3c[nH]c4ccccc34)ccc2c1`, in that order: 59 µM, 118 µM, 14 µM and 16 µM.
For `N=C(N)N1CCN(Cc2ccc3ccccc3c2)CC1`, in that order: over 1000 µM, 68 µM, 74 µM and over 1000 µM.
For the compound `c1ccc2cc(CNCc3cccc4ccccc34)ccc2c1`, the Ki is over 1000 µM on Melanocortin receptor 3 [1], over 1000 µM at Melanocortin receptor 4, 100 µM on Melanocortin receptor 5 and over 1000 µM in assay [2].
On to `NCCCNC(=O)[C@H](CNCc1c[nH]c2ccccc12)NCc1ccc2ccccc2c1`, for which the Ki at Melanocortin receptor 3 [1] came out at 56 µM; on Melanocortin receptor 4 it was 27 µM; at Melanocortin receptor 5, 36 µM; in assay [2], 0.7 µM.
With `NC(N)=NCCC[C@H](N)C(=O)N(Cc1ccc2ccccc2c1)Cc1cccc2ccccc12` (stereo in doubt; 11c), the Ki came out at 18 µM on Melanocortin receptor 3 [1], 2.1 µM on Melanocortin receptor 4, 2.7 µM on Melanocortin receptor 5 and 1.2 µM in assay [2].
For `NCCCNCc1ccc2ccccc2c1`, the Ki at Melanocortin receptor 3 [1] was 57 µM; on Melanocortin receptor 4, 94 µM; on Melanocortin receptor 5 it was 43 µM; in assay [2], over 1000 µM.
For `NCCNCc1ccc2ccccc2c1`, the Ki result in assay [3] is “Not Active”; at Melanocortin receptor 3 [4], “Not Active”; on Melanocortin receptor 4, 8.8 µM; at Melanocortin receptor 5, 83 µM.
As for `NC(N)=NCCC[C@H](N)C(=O)N(Cc1ccc2ccccc2c1)Cc1cccc2ccccc12` (stereo in doubt; 11b), the Ki was 9 µM at Melanocortin receptor 3 [1], 5.4 µM on Melanocortin receptor 4, 2.5 µM at Melanocortin receptor 5 and 0.69 µM in assay [2].
For `c1ccc2c(CNCc3c[nH]c4ccccc34)cccc2c1`, in that order: 214 µM, 161 µM, 38 µM and 26 µM.
For `N=C(N)NCCCNCc1c[nH]c2ccccc12`, in that order: 45 µM, 107 µM, 47 µM and 12 µM.
Regarding `c1ccc2c(CN3CCNCC3)c[nH]c2c1`, the Ki on Melanocortin receptor 3 [1] was over 1000 µM; on Melanocortin receptor 4, over 1000 µM; at Melanocortin receptor 5, 256 µM; in assay [2] it was over 1000 µM.
Consider `NCCCCNC(=O)[C@H](CCCCNCc1c[nH]c2ccccc12)NCc1ccc2ccccc2c1`, for which the Ki at Melanocortin receptor 3 [1] was 167 µM; on Melanocortin receptor 4 it was 24 µM; on Melanocortin receptor 5, 173 µM; in assay [2], 9.8 µM.
For `NCCCNCc1c[nH]c2ccccc12`, in that order: 145 µM, 104 µM, 150 µM and 28 µM.
Consider `c1ccc2c(CCNCc3c[nH]c4ccccc34)c[nH]c2c1`, for which the Ki on Melanocortin receptor 3 [1] was 86 µM; at Melanocortin receptor 4, 161 µM; at Melanocortin receptor 5 it was 18 µM; in assay [2], 32 µM.
On to `NCCNC(=O)[C@H](CNCc1ccc2ccccc2c1)NCc1ccc2ccccc2c1`, for which the inhibitory constant (Ki) on Melanocortin receptor 3 [1] is 58 µM; at Melanocortin receptor 4 it was 44 µM; on Melanocortin receptor 5, 28 µM; in assay [2], 27 µM.
For `N=C(N)N1CCN(Cc2c[nH]c3ccccc23)CC1`, in that order: over 1000 µM, over 1000 µM, over 1000 µM and over 1000 µM.

The values are drawn from ChEMBL document CHEMBL1135263, “Reductive amination products containing naphthalene and indole moieties bind to melanocortin receptors” (Bioorg Med Chem Lett, 2002).
